1 compound from patent US8119657B2, “Enantiomeric compositions of 2-amino-1-(2-isopropylpyrazolo[1,5-α]pyridin-3-yl)propan-1-one and related methods” (MediciNova, Inc., priority 2009, dated 2012) can be followed below.

Series [1] in a line: In vivo interconversion of enantiomers in rats dosed with enantiomerically pure (S)-AV1013. The settings on record: rats dosed with (S)-AV1013 of 99% enantiomeric excess, LLOQ=5 ng/mL. Details: species or system rat.
Series [2] can be described thus: Chiral and chemical stability in solution and on storage. The class given is physicochemical. The following applies: for racemization in dosing solutions and bioanalytical solutions: saline vehicle, DMSO:methanol, 1:1. The source says:
Without ascribing to any particular theory, the present inventors believe that the facile separation of enantiomers using the N-protected racemate of AV1013 is probably due to the greater stability of the racemate as well as the separate enantiomers in protected form. […] Unstability also stems from the ability of the free base to self condense. Because self-condensation is promoted in concentrated solutions, it is desirable to avoid highly concentrated solutions of the free base form of optically active AV1013. Likewise, the free base form of racemic AV1013 or its hydrochloride salt are also unstable, precluding their use as precursors to obtaining (S)-AV1013 as a free base or its hydrochloride salt in high yield and/or high purity.
Thus, it is often desirable to re-purify the de-protected product using purification techniques known in the art. For example, any one or more of the methods described above for separating chiral molecules, such as, chromatography (e.g., HPLC, GC, and SFC), crystallization, fractional crystallization, and the like may be used for re-purification. An exemplary method is recrystallization. Purification by recrystallization allows separation of the desired (S)-enantiomer in high purity, such that the overall reaction sequence including isolation of the desired (S)-enantiomer requires only a single chromatographic step (i.e., the chiral separation). Recrystallization can be carried out in any of a number of single or mixed solvent systems including alcohols, ethers, esters, nitriles, halogenated hydrocarbons, amides and aqueous mixtures thereof. Suitable solvents include methanol, ethanol, propanol, iso-propanol, acetone, tetrahyrofuran, methyl ethyl ketone, methyl isobutyl ketone, ethyl acetate, amyl acetate, acetonitrile, diethyl ether, methyl tert-butyl ether, dichloromethane, dichloroethane, chloroform, dimethylformamide, and combinations thereof. Illustrative mixed solvent systems used to recrystallize (S)-AV1013 are iso-propanol/methyl tert-butyl ether and ethanol/methyl tert-butyl ether.
The five-step route provided a 15% overall yield of (S)-AV1013.HCl. The chiral separation, by SFC chromatography, is the only chromatographic step required. Hydrolysis of the N-protected (S)-AV1013, followed by recrystallization from iso-propanol/methyl tert-butyl ether provided (S)-AV1013.HCl in greater than 99% chemical purity and greater than 97% S-enantiomer (greater than 94% enantiomeric excess (ee)) by chiral HPLC, as determined from the equation ee=[|R−S^51÷(R+S)]×100 ee=[|R−S|÷(R+S)]×100. […] Even under optimal storage and handling conditions to minimize exposure to moisture, a small degree of racemization (i.e., approximately 2%) was observed. Recrystallization was effective to improve enantiomeric purity to arrive at a product having an illustrative chiral purity as described above. […] The recrystallized (S)-AV 1013.HCl contained approximately 25 mole percent alcohol (less than about 10% by weight) even when dried at 50° C. Thus, it appears that the resultant product is formed as a solvate under the recrystallization and drying conditions employed.

Another series has as its system Rolipram binding site. The series is described as follows: Inhibition of binding at the Rolipram binding site. The settings on record: 10 uM.
The next series relates to formalin paw model. The series can be described thus: Inflammatory pain model (formalin paw model) in mice. The class given is in vivo. The following applies: for % Change from Control / Licking Score (Mean +/− SEM): mice. As for the experimental part: The model employed is described in detail by Wheeler-Aceto et al (Psychopharmacology, 104, p 35-44, (1991)). Briefly, mice were given an intraplantar injection of 5% formalin (25 μl) into the posterior left paw. […] Mice were briefly observed at 1 minute intervals between 15 and 50 minutes after the injection of formalin and the number of times mice were observed licking the injected paw was recorded. 10 mice were studied in each group. The test was performed blind.
AV1013-S was evaluated at 3 doses (10, 25 and 50 mg/kg), administered p.o. 60 minutes before the test (i.e. 45 minutes before formalin), and compared with a vehicle control group. Gabapentin (300 mg/kg p.o.), administered under the same experimental conditions, was used as reference substance. The experiment therefore included 5 groups.
Data were analyzed by comparing treated groups with vehicle control using unpaired Mann-Whitney U tests.

Where [3] appears, read: 10 mg/kg p.o. 60 min before the test.
[4] abbreviates: 25 mg/kg p.o. 60 min before the test.

“Also recorded” adds a separate entry of the source. Marks after values point to notes of the source that are not given here.

With `CC(C)c1nn2ccccc2c1C(=O)[C@H](C)N` [(S)-AV1013, (S)-2-amino-1-(2-isopropylpyrazolo[1,5-a]pyridin-3-yl)propan-1-one], the “plasma levels of the (R) enantiomer after dosing (S) (in vivo racemization)” value in series [1] was “no detectable plasma levels of the corresponding (R) enantiomer”; in series [1] (listed as (S)-enantiomer) it was “does not result in detectable levels of the (R)-enantiomer”. Also, the “stability / racemization in solution” value in series [2] (free base (or hydrochloride salt where stated), in solution) is “unstable and racemizes in solution; also recorded: racemizes slowly in solution”. For the same compound, the “racemization in dosing solutions and bioanalytical solutions” value in series [2] is “no detectable interconversion between the enantiomers”; in series [2] (listed as (S)-enantiomer), “no racemization has been documented”. Moreover, the “inhibition of the Rolipram binding site” value with Rolipram binding site is reported as 12%. Further, the “% Change from Control” value is listed as −16% in the series with formalin paw model (setting [3]); −16% in the series on formalin paw model (setting [4]); −45% with formalin paw model (50 mg/kg p.o. 60 min before the test, 50 mg/kg). In addition, the “Licking Score (Mean +/− SEM)” value in the series on formalin paw model (setting [3]) is 13.1 +/− 1.5; in the series on formalin paw model (setting [4]), 13.1 +/− 1.8; in the series with formalin paw model (50 mg/kg p.o. 60 min before the test, p < 0.01), 8.6 +/− 1.4 *. The “analgesic/anti-inflammatory activity in mouse formalin paw model (late-phase)” value in the series with formalin paw model (single oral dose of 50 mg/kg) is listed as “demonstrated analgesic/anti-inflammatory activity”.
